From patent US8957049B2, “Inhibitors of fatty acid amide hydrolase” (Infinity Pharmaceuticals, Inc., priority 2008, dated 2015)

Each compound was assayed against T1, human FAAH (Homo sapiens, UniProt O00519) (assay: Human FAAH biochemical inhibition assay (AMC arachidonoyl amide fluorescence)). Details: Table A, read-out: Activity (Ki) of other boronic acids tested, Table A.
T1 construct: host or cells: COS-7 cells, transient transfection (FuGENE 6); 13,000 g membrane fraction solubilised in 1% Triton X-100
T1 sequence (O00519 1-579): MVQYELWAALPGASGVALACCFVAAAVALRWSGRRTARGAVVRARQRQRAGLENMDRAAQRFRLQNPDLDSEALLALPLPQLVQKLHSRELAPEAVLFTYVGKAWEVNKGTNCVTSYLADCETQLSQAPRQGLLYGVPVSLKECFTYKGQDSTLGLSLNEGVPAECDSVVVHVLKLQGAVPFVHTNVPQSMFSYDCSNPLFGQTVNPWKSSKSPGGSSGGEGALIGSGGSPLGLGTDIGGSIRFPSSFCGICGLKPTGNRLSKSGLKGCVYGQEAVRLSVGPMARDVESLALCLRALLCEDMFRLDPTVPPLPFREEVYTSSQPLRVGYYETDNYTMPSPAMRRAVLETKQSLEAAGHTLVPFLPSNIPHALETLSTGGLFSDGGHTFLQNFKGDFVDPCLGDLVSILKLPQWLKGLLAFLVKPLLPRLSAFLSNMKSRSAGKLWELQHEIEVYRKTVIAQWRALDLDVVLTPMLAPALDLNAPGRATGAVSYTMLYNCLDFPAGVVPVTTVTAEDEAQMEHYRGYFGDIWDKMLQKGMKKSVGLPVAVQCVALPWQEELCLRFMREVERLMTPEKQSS
Method: Exemplary compounds are set forth in the Examples provided below. Compounds were assayed as inhibitors of human FAAH using the method described in detail in Example 286.
The following assays may be used to determine the inhibition of FAAH by the compounds of the present invention: (1) a fluorescence-based assay for fatty acid amide hydrolase compatible with high-throughput screening as described in Manjunath et al., Analytical Biochemistry (2005) 343:143-151; and (2) a high-throughput screening for the discovery of inhibitors of fatty acid amide hydrolase using a microsome-based fluorescent assay. Wang et al., Biomolecular Screening (2006) 1-9.
COS-7 cells were split the day before, 1:5 into 150 mm×25 mm cell culture dishes (Corning Inc., Cat. No. 430599). Transient transfection took place at 30-40% confluency according to FuGENE 6 Transfection Reagent (Roche, Cat. No. 11814 443 001).
The FuGENE transfection 6 reagent (45 uL) was added to 1410 μL of media (DMEM, serum free without pen/strep) in a 15 mL conical tube and incubated at room temp for 5 minutes, followed by the addition of FAAH plasmid DNA (15 μg) (OriGene Cat. No. TC119221, Genbank Accession No. NM_001441.1, 0.67 ug/uL) and a further incubation of 15 minutes at room temperature. The resulting solution was added into one dish of 30-40% confluent COS-7 cells in a drop-wise manner. The COS-7 cell dish was subsequently incubated for 48 hours. The cells are then harvested.
Media was aspirated from the dishes and the cells rinsed with 10 mL PBS. The PBS was removed and 3 mL of PBS added to the dish. The dish was scraped to resuspend the cells, and the subsequent cell suspension collected into a 15 mL conical tube. The cells were pelleted by centrifugation at 1200 rpm for 5 minutes in a bench top centrifuge. PBS was removed and the cell pellet snap frozen in liquid nitrogen and stored at −80° C.
COS-7 Cells—FAAH Purification: • (1) Fractionation: Frozen cell pellets from transient transfections were thawed on ice and resuspended in 12.5 mM Hepes pH 8.0, 100 mM NaCl, 1 mM EDTA (10 mL/0.2 g cell pellet). The pellets were dounce homogenized and then sonicated to produce cell extract. The cell extract was subsequently centrifuged at 1000 g to remove cellular debris. The pellet was discarded and the supernatant centrifuged at 13,000 g for 20 minutes. The pellet contained membrane bound FAAH. The supernatant was discarded and the pellet resolubilized. • (2) Re-solubilization: The fraction of interest, (13,000 g, membrane fraction) was re-suspended in 2.3 mL re-suspension buffer (20 mM Hepes pH 7.8, 10% v/v Glycerol, 1 mM EDTA, 1% Triton X-100) and the sample incubated on ice for 1 hour and then centrifuged to remove any particulate matter. The supernatant containing solubilized human FAAH was aliquoted and snap frozen in liquid nitrogen and stored at −80° C. until use. • (3) Characterization: Protein Concentration determined by Bradford assay. • SDS gel and Western blot to confirm presence of FAAH • FAAH activity assay • Km determination—96-well assay • Linear dependence—96-well assay • Standard compound Ki determination—384-well assay
Rat FAAH biochemical assays were carried out in a 96 well flat bottom black non-treated polystyrene plates (Corning Costar Catalogue #3915). FAAH reaction buffer: 50 mM Hepes (pH 7.5), 1 mM EDTA, 0.2% Triton X-100. FAAH substrate—AMC Arachidonoyl Amide (Cayman Chemicals Company, Catalog #10005098). The reaction was read in an Envision microtiter plate reader [Excitation filter 355 nm (40 nm bandpass); Emmision filter 460 nm (25 nm bandpass)]. The raw fluorescence was plotted on the y axis and the inhibitor concentration on the x axis to give a dose response inhibition curve. The data was fitted to a single site competitive inhibition equation, fixing the Km for the rat and human enzyme to 12 μM and 9 μM respectively. […]

Ki [nM]	SMILES
100 to 1000	OB(O)c1ccc(C(F)(F)F)nc1
> 1000	Cc1cc(B2OC(C)(C)C(C)(C)O2)cnc1N1CCN(C)CC1
100 to 1000	Cc1cc(B(O)O)cnc1N1CCOCC1
10 to 100	OB(O)c1ccc(-c2ccc(F)cc2)nc1
> 1000	CC(=O)NCc1ccc(B(O)O)cc1
> 1000	CC(=O)Nc1ccc(B(O)O)cc1
> 1000	COC(=O)Nc1ccc(B(O)O)cc1
10 to 100	O=C(Nc1ccccn1)c1ccc(B(O)O)cc1
100 to 1000	COCCNC(=O)c1ccc(B(O)O)cc1
10 to 100	O=S(=O)(c1ccc(B(O)O)cc1)n1cccc1
> 1000	O=C(O)CCc1ccc(B(O)O)cc1
100 to 1000	OB(O)c1ccc(OCCn2ccnc2)cc1
100 to 1000	CCOC(=O)COc1ccc(B(O)O)cc1
100 to 1000	OCCCc1ccc(B(O)O)cc1
> 1000	O=C(NCCCO)c1ccc(B(O)O)cc1
100 to 1000	NNC(=O)CCc1ccc(B(O)O)cc1

Same assay, conditions: class given in each Example, read-out: Activity (Ki, inhibition of human FAAH)

Ki [nM]	SMILES
10 to 100	OB(O)c1ccc(-c2ncc(-c3ccccc3)o2)cc1F [Compound 1]
10 to 100	OB(O)c1ccc(-c2ncc(-c3ccccc3)o2)cc1 [Compound 2]
> 1000	OB(O)c1ccc(-c2ncc(-c3ccccc3)s2)cc1F [Compound 3]
> 1000	OB(O)c1ccc(-c2nc(-c3ccccc3)c[nH]2)cc1F [Compound 7]
> 1000	OB(O)c1ccc(-c2nc(CCc3ccccc3)c(-c3ccccc3)s2)cc1 [Compound 8]
≤ 10	CCCCCc1nnc(-c2ccc(B(O)O)cn2)o1 [Compound 9]
100 to 1000	O=C1CCCN1CCc1nnc(-c2ccc(B(O)O)cc2)o1 [Compound 10]
100 to 1000	Cc1nnc(-c2cc(C(F)(F)F)ccc2B(O)O)o1 [Compound 11]
10 to 100	OB(O)c1ccc(-c2nnc(-c3ccccc3)o2)nc1 [Compound 12]
> 1000	CCCc1nnc(-c2ccccc2B(O)O)o1 [Compound 13]
≤ 10	CCCc1nnc(-c2cc(OCCc3ccccc3)ccc2B(O)O)o1 [Compound 17]
≤ 10	OB(O)c1ccc(OCCc2ccccc2)cc1-c1nnc(-c2ccco2)o1 [Compound 18]
≤ 10	Cc1nnc(-c2cc(OCCc3ccccc3)ccc2B(O)O)o1 [Compound 19]
≤ 10	OB(O)c1ccc(-c2nnc(CCC(F)(F)C(F)(F)F)o2)cc1 [Compound 20]
≤ 10	OB(O)c1ccc(-c2nnc(-c3cccnc3)o2)cc1 [Compound 21]
> 1000	CCCc1nnc(-c2ccc(F)cc2B(O)O)o1 [Compound 22]
10 to 100	Cc1nc(Cc2nnc(-c3ccc(B(O)O)cc3)o2)cs1 [Compound 23]
≤ 10	CCCc1nc(-c2ccc(B(O)O)cc2)no1 [Compound 24]
≤ 10	CCC/C=C/c1nnc(-c2ccc(B(O)O)cc2)o1 [Compound 25]

Ki [nM]	SMILES
≤ 10	CCCCCc1nnc(-c2ccc(B(O)O)c(F)c2)o1 [Compound 26]
≤ 10	CCCCCc1nnc(-c2cc(B(O)O)cs2)o1 [Compound 27]
100 to 1000	Cc1nnc(/C=C/c2ccccc2B(O)O)o1 [Compound 28]
≤ 10	CCCCCc1nnc(-c2ccc(B(O)O)cc2Cl)o1 [Compound 29]
≤ 10	CCCCCc1nnc(-c2ccc(B(O)O)cc2)o1 [Compound 30]
> 1000	OB(O)c1ccccc1-c1nnc(-c2ccccc2)o1 [Compound 31]
≤ 10	CCC(C)CCc1nnc(-c2ccc(B(O)O)cc2)o1 (stereo not shown) [Compound 32]
≤ 10	OB(O)c1ccc(-c2nnc(CCC3CCCC3)o2)cc1 [Compound 33]
≤ 10	CCCCC(C)c1nnc(-c2ccc(B(O)O)cc2)o1 (stereo not shown) [Compound 34]
≤ 10	OB(O)c1ccc(-c2nnc(CC3CCCC3)o2)cc1 [Compound 35]
≤ 10	OB(O)c1ccc(-c2nnc(CCC3CCCCC3)o2)cc1 [Compound 36]
≤ 10	CCCCCCc1nnc(-c2ccc(B(O)O)cc2)o1 [Compound 37]
≤ 10	CC(C)CCCc1nnc(-c2ccc(B(O)O)cc2)o1 [Compound 38]
≤ 10	CCCc1nnc(-c2ccc(B(O)O)cc2)o1 [Compound 39]
≤ 10	OB(O)c1ccc(-c2nnc(CCCC(F)(F)F)o2)cc1 [Compound 40]
10 to 100	OB(O)c1ccc(-c2nnc(-c3cncc(F)c3)o2)cc1 [Compound 41]
≤ 10	CCCCc1nnc(-c2ccc(B(O)O)cc2)o1 [Compound 42]
≤ 10	OB(O)c1ccc(-c2nnc(-c3cccc4c3OCCO4)o2)cc1 [Compound 43]
≤ 10	COc1cccc(-c2nnc(-c3ccc(B(O)O)cc3)o2)c1OC [Compound 44]

Ki [nM]	SMILES
≤ 10	OB(O)c1ccc(-c2nnc(-c3ccc4c(c3)OCO4)o2)cc1 [Compound 45]
≤ 10	OB(O)c1ccc(-c2nnc(-c3cccc4c3OCC4)o2)cc1 [Compound 46]
≤ 10	OB(O)c1ccc(-c2nnc(-c3cccc(C(F)(F)F)c3)o2)cc1 [Compound 47]
≤ 10	OB(O)c1ccc(-c2nnc(-c3cccc(C(F)(F)F)c3)s2)cc1 [Compound 48]
≤ 10	OB(O)c1ccc(-c2nnc(-c3cccnc3)s2)cc1 [Compound 49]
≤ 10	OB(O)c1ccc(-c2nnc(-c3cccc4c3OCO4)s2)cc1 [Compound 50]
≤ 10	Cn1ccc2c(-c3nnc(-c4ccc(B(O)O)cc4)o3)cccc21 [Compound 51]
≤ 10	OB(O)c1ccc(-c2nnc(-c3cccc4c3OC(F)(F)O4)o2)cc1 [Compound 52]
≤ 10	OB(O)c1ccc(-c2nnc(-c3cccc4c3OCO4)o2)cc1 [Compound 53]
10 to 100	Cn1cncc1-c1nnc(-c2ccc(B(O)O)cc2)o1 [Compound 54]
10 to 100	OB(O)c1ccc(-c2nnc(Cc3ccccc3)o2)s1 [Compound 55]
10 to 100	OB(O)c1ccc(-c2nnc(-c3ccccc3)o2)s1 [Compound 56]
≤ 10	OB(O)c1ccc(-c2nnc(CCc3ccccc3)o2)cc1 [Compound 57]
≤ 10	OB(O)c1csc(-c2nnc(CCc3ccccc3)o2)c1 [Compound 58]
≤ 10	OB(O)c1ccc(-c2nnc(Cc3ccsc3)o2)cc1 [Compound 59]
10 to 100	CCCCCc1nnc(-c2coc(B(O)O)c2)o1 [Compound 60]
≤ 10	OB(O)c1csc(-c2nnc(Cc3ccccc3)o2)c1 [Compound 60]
10 to 100	OB(O)c1csc(-c2nnc(-c3ccccc3)o2)c1 [Compound 61]
≤ 10	OB(O)c1ccc(-c2nnc(-c3ccccc3)s2)cc1 [Compound 62]
